Series [1] relates to Beet Armyworm (BAW) (Spodoptera exigua). Briefly: Bioassay on Beet Armyworm (BAW), 128-well diet tray assay. Type of series: in vivo. The note with it: for mortality at 50 µg/cm2: Spodoptera exigua, 168 h, read-out: Rating BAW (% Control (or Mortality)). The protocol: (§1) Certain molecules disclosed in this document were tested against BAW and CEW using procedures described in the following examples. In the reporting of the results, the “BAW & CEW Rating Table” was used (See Table Section).
Bioassays on BAW (Spodoptera exigua)
(§2) Trays were covered with a clear self-adhesive cover and held at 25° C., 14:10 light-dark for five to seven days. Percent mortality was recorded for the larvae in each well; activity in the eight wells was then averaged. The results are indicated in the table entitled “Table ABC: Biological Results” (See Table Section).

In series [2] the test system is Corn Earworm (CEW) (Helicoverpa zea). Briefly: Bioassay on Corn Earworm (CEW), 128-well diet tray assay. Conditions: for mortality at 50 µg/cm2 / mortality at 0.5 µg/cm2: Helicoverpa zea, 168 h; for mortality at 50 µg/cm2: read-out: Rating CEW (% Control (or Mortality)); for mortality at 0.5 µg/cm2: 0.5 μg/cm2 on artificial diet, read-out: Rating CEW (% Control (or Mortality)), *Tested at 0.5 μg/cm2. Type of series: in vivo. The protocol: as §1
Bioassays on CEW (Helicoverpa zea)
as §2

The mark [3] stands for this setting: 50 μg/cm2 on artificial diet, second instar larvae, five to seven days.
The mark [4] stands for this setting: second instar larvae, five to seven days.

Molecules are shown by their SMILES. Read-outs that look alike come from different tables or passages of the source.

Consider 29 molecules from patent publication US20150196033A1, “PESTICIDAL COMPOSITIONS AND PROCESSES RELATED THERETO” (priority 2012, published 2015).

Turning to `CC(C)C(=O)OCS/C(=N/C(=O)Nc1ccc(-c2ncn(-c3ccc(OC(F)(F)F)cc3)n2)cc1)Nc1c(F)cccc1F` [Molecule A61], the mortality at 50 µg/cm2 in series [1] (setting [3]) and in series [2] (setting [3]) was 50 to 100% in each case.

As for `Cc1ccccc1N/C(=N\C(=O)Nc1ccc(-c2ncn(-c3ccc(OC(F)(F)F)cc3)n2)cc1)SCOC(=O)C(C)C` [Molecule A60], the mortality at 50 µg/cm2 in series [1] (setting [3]) and in series [2] (setting [3]) was 50 to 100% in each case.

For `Cc1cccc(C)c1N1CC(C)CS/C1=N\C(=O)Nc1ccc(-c2ncn(-c3ccc(OC(F)(F)F)cc3)n2)cc1` (centres unmarked) [Molecule A39], the mortality at 50 µg/cm2 in series [1] (setting [3]) and in series [2] (setting [3]) was 50 to 100% throughout.

`CC(C)(C)c1ccccc1N/C(S)=N/C(=O)Nc1ccc(-c2ncn(-c3ccc(OC(F)(F)F)cc3)n2)cc1` [Molecule A67]: the mortality at 50 µg/cm2 in series [1] (setting [3]) is 50 to 100%. Also, in series [2] (setting [4]), the mortality at 0.5 µg/cm2 was 50 to 100%.

Take `Cc1ccccc1NC(=O)NC(=O)Nc1ccc(-c2ncn(-c3ccc(OC(F)(F)F)cc3)n2)cc1` [Molecule A51]: the mortality at 50 µg/cm2 in series [1] (setting [3]) and in series [2] (setting [3]) was 50 to 100% in each case.

Take `Cc1cccc(C)c1N/C(=N/C(=O)Nc1ccc(-c2ncn(-c3ccc(C(F)(F)F)cc3)n2)cc1)SCOC(=O)CNC(=O)OCc1ccccc1` [Molecule A8, (Z)-((N-(2,6-Dimethylphenyl)-N′-((4-(1-(4-(trifluoromethyl)phenyl)-1H-1,2,4-triazol-3-yl)phenyl)carbamoyl)carbamimidoyl)thio)methyl 2-(((benzyloxy)carbonyl)amino)acetate]: the mortality at 50 µg/cm2 in series [1] and in series [2] was 50 to 100% throughout.

`COc1ccc(N/C(=N\C(=O)Nc2ccc(-c3ncn(-c4ccc(OC(F)(F)F)cc4)n3)cc2)SCOC(=O)C(C)C)c(C)c1` [Molecule A56]: the mortality at 50 µg/cm2 in series [1] (setting [3]) and in series [2] (setting [3]) was 50 to 100% each time.

With `O=C(/N=C(\S)Nc1ccccc1Cc1ccccc1)Nc1ccc(-c2ncn(-c3ccc(OC(F)(F)F)cc3)n2)cc1` [Molecule A101], the mortality at 50 µg/cm2 in series [1] (setting [3]) lay within 50 to 100%. The mortality at 0.5 µg/cm2 in series [2] (setting [4]) is 50 to 100%.

For the molecule `CCc1ccccc1NC(=O)NC(=O)Nc1ccc(-c2ncn(-c3ccc(OC(F)(F)F)cc3)n2)cc1` [Molecule A52], the mortality at 50 µg/cm2 in series [1] (setting [3]) and in series [2] (setting [3]) was 50 to 100% each time.

Turning to `COc1ccc(N/C(S)=C(\C#N)C(=O)Nc2ccc(-c3ncn(-c4ccc(OC(F)(F)F)cc4)n3)cc2)c(C)c1` [Molecule A26, (Z)-2-Cyano-3-mercapto-3-((4-methoxy-2-methylphenyl)amino)-N-(4-(1-(4-(trifluoromethoxy)phenyl)-1H-1,2,4-triazol-3-yl)phenyl)acrylamide], the mortality at 50 µg/cm2 in series [1] (setting [3]) and in series [2] (setting [3]) was 0% each time.

`CCCc1ccccc1N/C(S)=N/C(=O)Nc1ccc(-c2ncn(-c3ccc(OC(F)(F)F)cc3)n2)cc1` [Molecule A64]: in series [1] (setting [3]), the mortality at 50 µg/cm2 is 50 to 100%. Moreover, the mortality at 0.5 µg/cm2 in series [2] (setting [4]) fell in the range of 50 to 100%.

Consider `Cc1cc(C)c(N/C(S)=N/C(=O)Nc2ccc(-c3ncn(-c4ccc(OC(F)(F)F)cc4)n3)cc2)c(C)c1` [Molecule A49], for which the mortality at 50 µg/cm2 in series [1] (setting [3]) and in series [2] (setting [3]) was 50 to 100% in each case.

In the case of `CC(C)c1ccccc1N/C(S)=N/C(=O)Nc1ccc(-c2ccn(-c3ccc(OC(F)(F)F)cc3)n2)cc1` [Molecule A114], the mortality at 50 µg/cm2 in series [1] (setting [3]) was 50 to 100%. The mortality at 0.5 µg/cm2 in series [2] (setting [4]) fell in the range of 50 to 100%.

As to `Cc1ccc(F)c(N2C(=O)CS/C2=N\C(=O)Nc2ccc(-c3ncn(-c4ccc(OC(F)(F)F)cc4)n3)cc2)c1` [Molecule A94], the mortality at 50 µg/cm2 in series [1] (setting [3]) lay within 50 to 100%. Besides, in series [2] (setting [4]), the mortality at 0.5 µg/cm2 lay within 50 to 100%.

`COc1ccc(NC(=O)NC(=O)Nc2ccc(-c3ncn(-c4ccc(C(F)(F)F)cc4)n3)cc2)c(C)c1` [Molecule A53]: the “Rating BAW (% Control (or Mortality))” value in series [1] (setting [3]) is listed as “D (No activity noticed in this bioassay)”. For the same molecule, the “Rating CEW (% Control (or Mortality))” value in series [2] (setting [3]) is listed as “D (No activity noticed in this bioassay)”.

Turning to `CCc1cccc(C)c1N/C(S)=N/C(=O)Nc1ccc(-c2ncn(-c3ccc(OC(F)(F)F)cc3)n2)cc1` [Molecule A97], the mortality at 50 µg/cm2 in series [1] (setting [3]) lay in the range of 50 to 100%. Moreover, the mortality at 0.5 µg/cm2 in series [2] (setting [4]) lay in the range of 50 to 100%.

As to `COc1ccc(N/C(=N/C(=O)Nc2ccc(-c3ncn(-c4ccc(OC(F)(F)F)cc4)n3)cc2)SCS[C@@H]2O[C@@H](C)[C@H](OC)[C@@H](OC)[C@H]2OC)c(C)c1` [Molecule A10, (Z)-(((2S,3R,4R,5S,6S)-3,4,5-Trimethoxy-6-methyltetrahydro-2H-pyran-2-yl)thio)methyl N-(4-methoxy-2-methylphenyl)-N′-((4-(1-(4-(trifluoromethoxy)phenyl)-1H-1,2,4-triazol-3-yl)phenyl)carbamoyl) carbamimidothioate], the mortality at 50 µg/cm2 in series [1] (setting [3]) and in series [2] (setting [3]) was 50 to 100% each time.

As to `Cc1c(F)cccc1N1C(=O)CS/C1=N\C(=O)Nc1ccc(-c2ncn(-c3ccc(OC(F)(F)F)cc3)n2)cc1` [Molecule A93], the mortality at 50 µg/cm2 in series [1] (setting [3]) lay within 50 to 100%. In addition, the mortality at 0.5 µg/cm2 in series [2] (setting [4]) lay in the range of 50 to 100%.

In the case of `Cc1ccccc1N/C(S)=C(\C#N)C(=O)Nc1ccc(-c2ncn(-c3ccc(OC(F)(F)F)cc3)n2)cc1` [Molecule A29, (Z)-2-Cyano-3-mercapto-3-(o-tolylamino)-N-(4-(1-(4-(trifluoromethoxy)phenyl)-1H-1,2,4-triazol-3-yl)phenyl)acrylamide], the mortality at 50 µg/cm2 lay within 0 to 50% in series [1] (setting [3]) and 50 to 100% in series [2] (setting [3]).

As for `CCc1cccc(C)c1N1C(=O)CS/C1=N\C(=O)Nc1ccc(-c2ncn(-c3ccc(OC(F)(F)F)cc3)n2)cc1` [Molecule A103], the mortality at 50 µg/cm2 in series [1] (setting [3]) lay within 50 to 100%. In addition, the mortality at 0.5 µg/cm2 in series [2] (setting [4]) lay within 50 to 100%.

On to `Cc1ccc(N/C(S)=N/C(=O)Nc2ccc(-c3ncn(-c4ccc(OC(F)(F)F)cc4)n3)cc2)c(C)c1` [Molecule A68], for which, in series [1] (setting [3]), the mortality at 50 µg/cm2 fell in the range of 50 to 100%. In series [2] (setting [4]), the mortality at 0.5 µg/cm2 is 50 to 100%.

Consider `O=C(/N=C1\SCC(=O)N1c1ccccc1C1CC1)Nc1ccc(-c2ncn(-c3ccc(OC(F)(F)F)cc3)n2)cc1` [Molecule A66], for which the mortality at 50 µg/cm2 in series [1] (setting [3]) was in the range of 50 to 100%.

Regarding `CC(C)c1ccccc1N/C(S)=N/C(=O)Nc1ccc(-c2ncn(-c3ccc(OC(F)(F)C(F)(F)F)cc3)n2)cc1` [Molecule A112], the mortality at 50 µg/cm2 in series [1] (setting [3]) lay in the range of 50 to 100%.

On to `COc1ccc(Cl)cc1N/C(S)=N/C(=O)Nc1ccc(-c2ncn(-c3ccc(OC(F)(F)F)cc3)n2)cc1` [Molecule A99], for which, in series [1] (setting [3]), the mortality at 50 µg/cm2 stood at 0%.

`CC(C)(C)c1ccccc1N1C(=O)CS/C1=N\C(=O)Nc1ccc(-c2ncn(-c3ccc(OC(F)(F)F)cc3)n2)cc1` [Molecule A95]: in series [2] (setting [4]), the mortality at 0.5 µg/cm2 fell in the range of 50 to 100%.

On to `Cc1ccc(C(C)C)c(N/C(S)=N/C(=O)Nc2ccc(-c3ncn(-c4ccc(OC(F)(F)F)cc4)n3)cc2)c1` [Molecule A83], for which the mortality at 50 µg/cm2 in series [1] (setting [3]) fell in the range of 50 to 100%.

As for `O=C(/N=C(\S)Nc1ccc(Cl)cc1Cl)Nc1ccc(-c2ncn(-c3ccc(OC(F)(F)F)cc3)n2)cc1` [Molecule A78], the mortality at 50 µg/cm2 in series [1] (setting [3]) was 0%.

In the case of `Cc1cccc(N/C(S)=N/C(=O)Nc2ccc(-c3ncn(-c4ccc(OC(F)(F)F)cc4)n3)cc2)c1C` [Molecule A71], the mortality at 50 µg/cm2 in series [1] (setting [3]) lay in the range of 50 to 100%.

With `CC(C)c1ccccc1N1C(=O)CS/C1=N\C(=O)Nc1ccc(-c2nnc(-c3ccc(OC(F)(F)C(F)(F)F)cc3)o2)cc1` [Molecule A102, (Z)-1-(3-(2-isopropylphenyl)-4-oxothiazolidin-2-ylidene)-3-(4-(5-(4-(perfluoroethoxy)phenyl)-1,3,4-oxadiazol-2-yl)phenyl)urea], the mortality at 0.5 µg/cm2 in series [2] (setting [4]) is 50 to 100%.
